B1: LXRb: Liver X Receptor β (NR1H2), cDNA driver (protein, UniProt P55055 1-460, looked up)
Oxysterols receptor LXR-beta: MSSPTTSSLDTPLPGNGPPQPGAPSSSPTVKEEGPEPWPGGPDPDVPGTDEASSACSTDWVIPDPEEEPERKRKKGPAPKMLGHELCRVCGDKASGFHYNVLSCEGCKGFFRRSVVRGGARRYACRGGGTCQMDAFMRRKCQQCRLRKCKEAGMREQCVLSEEQIRKKKIRKQQQESQSQSQSPVGPQGSSSSASGPGASPGGSEAGSQGSGEGEGVQLTAAQELMIQQLVAAQLQCNKRSFSDQPKVTPWPLGADPQSRDARQQRFAHFTELAIISVQEIVDFAKQVPGFLQLGREDQIALLKASTIEIMLLETARRYNHETECITFLKDFTYSKDDFHRAGLQVEFINPIFEFSRAMRRLGLDDAEYALLIAINIFSADRPNVQEPGRVEALQQPYVEALLSYTRIKRPQDQLRFPRMLMKLVSLRTLSSVHSEQVFALRLQDKKLPPLLSEIWDVHE
B2: RORa: RAR-related Orphan Receptor α (NR1F1), cDNA driver (protein, UniProt P35398 1-523, looked up)
Nuclear receptor ROR-alpha: MESAPAAPDPAASEPGSSGADAAAGSRETPLNQESARKSEPPAPVRRQSYSSTSRGISVTKKTHTSQIEIIPCKICGDKSSGIHYGVITCEGCKGFFRRSQQSNATYSCPRQKNCLIDRTSRNRCQHCRLQKCLAVGMSRDAVKFGRMSKKQRDSLYAEVQKHRMQQQQRDHQQQPGEAEPLTPTYNISANGLTELHDDLSNYIDGHTPEGSKADSAVSSFYLDIQPSPDQSGLDINGIKPEPICDYTPASGFFPYCSFTNGETSPTVSMAELEHLAQNISKSHLETCQYLREELQQITWQTFLQEEIENYQNKQREVMWQLCAIKITEAIQYVVEFAKRIDGFMELCQNDQIVLLKAGSLEVVFIRMCRAFDSQNNTVYFDGKYASPDVFKSLGCEDFISFVFEFGKSLCSMHLTEDEIALFSAFVLMSADRSWLQEKVKIEKLQQKIQLALQHVLQKNHREDGILTKLICKVSTLRALCGRHTEKLMAFKAIYPDIVRLHFPPLYKELFTSEFEPAMQIDG
B3: HNF4a: Hepatocyte Nuclear Factor α (NR2A1), cDNA driver (protein, UniProt P41235 1-474, looked up)
Hepatocyte nuclear factor …: MRLSKTLVDMDMADYSAALDPAYTTLEFENVQVLTMGNDTSPSEGTNLNAPNSLGVSALCAICGDRATGKHYGASSCDGCKGFFRRSVRKNHMYSCRFSRQCVVDKDKRNQCRYCRLKKCFRAGMKKEAVQNERDRISTRRSSYEDSSLPSINALLQAEVLSRQITSPVSGINGDIRAKKIASIADVCESMKEQLLVLVEWAKYIPAFCELPLDDQVALLRAHAGEHLLLGATKRSMVFKDVLLLGNDYIVPRHCPELAEMSRVSIRILDELVLPFQELQIDDNEYAYLKAIIFFDPDAKGLSDPGKIKRLRSQVQVSLEDYINDRQYDSRGRFGELLLLLPTLQSITWQMIEQIQFIKLFGMAKIDNLLQEMLLGGSPSDAPHAHHPLHPHLMQEHMGTNVIVANTMPTHLSNGQMCEWPRPRGQAATPETPQPSPPGGSGSEPYKLLPGAVATIVKPLSAIPQPTITKQEVI

Legend:
mAgrp promoter = test: NHR-promoter luciferase screen, mAgrp promoter; type: cell-based, mouse; details: for Results of assays of transcription factor (+/- ligand) with mAgrp: Table 6d, luciferase activity relative to control (control = 1.00); for Luc. act., normalized to lacZ / Normalized Luc. act., normalized to control: mAgrp promoter, HR component with or without ligand; for Normalized Luc. act., normalized to control: relative to control; for luciferase/LacZ, mAgrp (selected results): mAgrp promoter-luciferase, NHR +/- ligand, control = 1.0
Method: (§1) The use, feasibility, and reproducibility of the functional NHR-promoter screen in a 48-well format have been tested validated. Briefly, there were co-expressed 50 ng of each NHR/NHR homodimer or NHR/RXR heterodimer with 100 ng promoter/luciferase construct and 50 ng of LacZ (as a control for transfection efficiency) in CV-1 cells using Fugene HD (Roche) as a transfection reagent (alternatively or additionally, a CMV-YFP construct can be used as a transfection control). Each of the nuclear hormone receptors that were used in these experiments was cloned into a pcDNA3.1 vector and comprised a C-terminally linked V5H6 tag. Twenty-four hours after transfection, appropriate ligands were added, where applicable, (see Table 5 for various ligands and concentrations and after 48 hrs, samples were assayed for luciferase and LacZ activity. To measure for luciferase activity 15 ul of sample was added to 30 ul of luciferase buffer (20 mM tricine, 1.07 mM MgCarbonate, 2.67 mM MgSulfate, 0.1 mM Naz-EDTA, 5 mM DTT, 5 mM ATP, 0.15 mg/ml CoA, 0.5 mM Luciferin), mixed briefly, and run in a Perkin Elmer Victor 5 luminometer. Thus, the functional NHR-promoter screen was used to observe the transcriptional activity of 29 promoters from various physiological pathways including inflammation, lipid and sugar metabolism, cholesterol transport, xenobiotic metabolism, and circadian rhythm.
(§2) The promoters that facilitate transcription of the indicated gene products that were tested using the protocols described herein are listed in the first row of the table. The nuclear hormone receptors and, where applicable, ligands that were assayed for their transcriptional effects on the promoters are listed in the first column of the table. The data represent the luciferase activity of each sample normalized to both the lacZ activity of that sample and to a control, e.g., no NHR or ligand, as customary in the art. As described previously, these normalizations allow the transcriptional activity of each reporter cell to be compared to other samples.
(§3) Tables 7-40 show the transcriptional effects of the hormone receptors, and, where applicable, ligands (orphan receptors are screened without ligand), on each individual promoter. […] The control data of each table are shown in their last rows.

mUCP2 promoter = test: NHR-promoter luciferase screen, mUCP2 promoter; type: cell-based, mouse; details: for Luc. act., normalized to lacZ / Normalized Luc. act., normalized to control: mUCP2 promoter reporter, co-transfected HR, with or without its ligand; for Normalized Luc. act., normalized to control: relative to control; for luciferase activity normalized to lacZ activity and to a control, mUCP2: mUCP2 promoter-luciferase, CV-1 cells, NHR +/- ligand, control = 1.00
Method: as §1, §2, §3

hIFNg promoter = test: NHR-promoter luciferase screen, hIFNg promoter; type: cell-based, human; details: for Luc. act., normalized to lacZ / Normalized Luc. act., normalized to control: IFNg promoter, HR component without or with ligand; for hIFNg promoter reporter activity: transcription factor +/- ligand, control = 1.00
Method: as §1, §2, §3

Molecule | Results of assays of transcription factor (+/- ligand) with mAgrp (mAgrp promoter) | Luc. act., normalized to lacZ (mAgrp promoter) | Normalized Luc. act., normalized to control (mAgrp promoter) | Luc. act., normalized to lacZ (mUCP2 promoter) | Normalized Luc. act., normalized to control (mUCP2 promoter) | luciferase activity normalized to lacZ activity and to a control, mUCP2 (mUCP2 promoter) | Luc. act., normalized to lacZ (hIFNg promoter) | Normalized Luc. act., normalized to control (hIFNg promoter) | hIFNg promoter reporter activity (hIFNg promoter) | luciferase/LacZ, mAgrp (selected results) (mAgrp promoter)
PNR: Photoreceptor-specific Nuclear Receptor (NR2E3), cDNA driver | 0.76 | 30.1 | 0.8 | 104.4 | 1.0 | 0.95 | 11.3 | 0.7 | 0.71 | 
NR4a1: NR4a1 (NR4A1; NUR77), nuclear hormone receptor cDNA driver | 1.17 | 46.3 | 1.2 | 265.6 | 2.4 | 2.42 | 35.6 | 2.2 | 2.24 | 1.2
TLX: Tailless (homolog of drosophila) (NR2E1), cDNA driver | 0.82 | 32.4 | 0.8 | 111.9 | 1.0 | 1.02 | 28.0 | 1.8 | 1.76 | 
GR: Glucocorticoid Receptor (NR3C1), cDNA driver | 0.55 | 22.0 | 0.6 | 59.4 | 0.5 | 0.54 | 8.9 | 0.6 | 0.56 | 0.6
AR: Androsterone Receptor (NR3C4), cDNA driver | 1.15 | 45.8 | 1.2 | 196.6 | 1.8 | 1.79 | 31.4 | 2.0 | 1.97 | 
SF-1: Steroidogenic Factor 1 (NR5A1, SF1), cDNA driver | 3.58 | 141.9 | 3.6 | 449.3 | 4.1 | 4.09 | 46.3 | 2.9 | 2.91 | 
VDR: Vitamin D Receptor (NR1I1), cDNA driver | 1.14 | 45.3 | 1.1 | 136.2 | 1.2 | 1.24 | 16.06 | 1.0 | 1.01 | 
RXRa: Retinoic X Receptor α (NR2B1), cDNA driver | 1.17 | 46.4 | 1.2 | 137.8 | 1.3 | 1.25 | 13.1 | 0.8 | 0.82 | 
PPARa: Peroxisome proliferator activated receptor α (NR1C1), cDNA driver | 1.06 | 42.1 | 1.1 | 167.3 | 1.5 | 1.52 | 11.3 | 0.7 | 0.71 | 
ERR1: Estrogen Related Receptor α (NR3B1, ERRa), cDNA driver | 1.15 | 45.5 | 1.1 | 121.6 | 1.1 | 1.11 | 18.5 | 1.2 | 1.17 | 
B1 | 0.78 | 31.0 | 0.8 | 170.7 | 1.6 | 1.55 | 19.35 | 1.2 | 1.22 | 
B2 | 1.65 | 65.6 | 1.7 | 104.0 | 0.9 | 0.95 | 8.8 | 0.6 | 0.55 | 
B3 | 0.91 | 36.1 | 0.9 | 136.4 | 1.2 | 1.24 | 8.7 | 0.5 | 0.55 | 

From US20110263454A1, “Methods of Identifying Functional Characteristics of Promoters, Transcription Modifying Proteins and Transcription Modulating Agents” (Salk Institute for Biological Studies, priority 2008, published 2011)
